Assay results published in patent US8507490B2, “Tetrasubstituted pyridazine hedgehog pathway antagonists” (Eli Lilly and Company, priority 2008, dated 2013).
Structures can show the parent of a compound that is named as a salt.

Test system: Gli1 transcript in Daoy cells (Shh signaling)
Experiment: Functional assay for measuring the inhibition of Gli1 in Daoy cells (bDNA assay of Gli1 transcript after Shh-conditioned media stimulation)
Type: cell-based
Details: Homo sapiens; Daoy cells stimulated with Shh-CM, 24 hours incubation with compound, Gli1 bDNA luminescence
Protocol: Biological activity is determined using a functional assay in Daoy neuronal cancer cells and measures levels of Gli1 ribonucleic acid via a bDNA (branched deoxyribonucleic acid) assay system (Panomics, Inc., Fremont, Calif.). Gli was originally discovered in a Glioblastoma cell line and encodes a zinc finger protein that is activated by Shh signaling. The maximum response is obtained by inducing Gli1 transcription in the Daoy cells with conditioned medium (human embryonic kidney, HEK-293 cells stably expressing recombinant Shh) for 24 hours and then measuring the amount of stimulated Gli1 transcript. […]
The bDNA assay system utilizes the technology of branched-chain DNA to allow amplification of a target ribonucleic acid (transcript). […] The addition of a chemilumigenic substrate during the amplification step allows for detection using luminescence. […]
Daoy cells are grown to confluency in tissue culture T225-flasks in Daoy growth media containing Minimum Essential Medium (MEM) plus 10% Fetal Bovine Serum (FBS) with […] non-essential amino acids and 1 mM sodium pyruvate. The cells are removed from the T225-flasks using trypsin ethylenediaminetetraacetic acid (EDTA), centrifuged, resuspended in media, and then counted. […]

Row | IC50 | Compound
1 | ~1.22 nM | Cc1c(-c2ccc(F)cc2)nnc(N2CCC(N(C)C(=O)[C@@H]3CCCCN3)CC2)c1C [Example 34, (S)-N-(1-(6-(4-Fluorophenyl)-4,5-dimethylpyridazin-3-yl)piperidin-4-yl)-N-methylpiperidine-2-carboxamide dihydrochloride]
2 | ~1.27 nM | Cc1c(-c2ccc(C#N)cc2)nnc(N2CCC(N(C)C(=O)c3cccnc3C(F)(F)F)CC2)c1C [Example 14, N-(1-(6-(4-Cyanophenyl)-4,5-dimethylpyridazin-3-yl)piperidin-4-yl)-N-methyl-2-(trifluoromethyl)nicotinamide dihydrochloride]
